# Assay results from patent publication US20090054403A1, “Treatment of Post-Traumatic Stress Disorder” (priority 2007, published 2009).
# Tests used:
# [1] = Tissue and plasma compound levels in beagle dogs, 10, 30, 60 mg/kg/day; type: in vivo
# Protocol: Thirty-two male beagle dogs, weighing 10-12 kg, were randomly assigned to one of the following 4 treatment groups (n=8 per group): nepicastat at 0 mg/kg/day (placebo), 10 mg/kg/day (5 mg/kg b.i.d.), 30 mg/kg (15 mg/kg b.i.d.), or 60 mg/kg/day (30 mg/kg b.i.d.). Dog numbers 1-16 were assigned as dose group A and dog numbers 17-32 as dose group B. The terminal surgery for tissue harvest was performed over 2 days with 16 animals studied per day. Two or 3 days before the first compound administration each dog was weighed and skin regions overlying both cephalic, saphenous and jugular veins were shaved. Dosing consisted of oral administration of one capsule with the second given 8-10 hr later. Dogs were dosed as scheduled on days 1-3. On day 4, prior to the AM dose, 3 ml of blood were obtained from a jugular vein for determination of baseline plasma compound levels. […]
# Ventricles were homogenized in 50 mM Tris-HCl, 5 mM Na2EDTA buffer (pH 7.4 at 4° C.) using a Polytron P-10 tissue disrupter (setting 10, 2×15 second bursts). […] Aquasol scintillation fluid was added to each vial and radioactivity determined by liquid scintillation counting. Saturation binding isotherms were analyzed after first converting total ligand concentrations to free ligand concentrations (total−bound=free). […]
# [2] = tested on: blood pressure, heart rate, motor activity; assay: Radio-telemetry blood pressure, heart rate, motor activity in normotensive rats, 7 days; type: in vivo, normotensive Wistar rats (Crl:COBS(WI)BR)
# Protocol: Male Crl:COBS(WI)BR rats of 15 weeks old were used. Twenty-four rats were chronically implanted with telemetry implants (TA11PA-C40, Data Sciences, Inc., St. Paul, Minn.) for measurement of arterial blood pressure, heart rate and motor activity. The rat was anesthetized with pentobarbital sodium (60 mg/kg, ip) and its abdomen shaved. Under aseptic conditions, an incision was made on midline. The abdominal aorta was exposed, and cannulated with the catheter of a telemetry transmitter unit. After the transmitter was sutured to the abdominal musculature, the skin was closed. Each rat was allowed to recover for at least 2 weeks before being subjected to drug administration. Three days prior to the start of the experiment, the rats were randomly divided into 4 treatment groups: Vehicle (p.o.), Hydralazine (10 mg/kg, p.o.), nepicastat (30 mg/kg, p.o.), nepicastat (100 mg/kg, p.o.).
# Systolic blood pressure (SBP), diastolic blood pressure (DBP), mean blood pressure (MBP), heart rate (HR), and motor activity (MA) were monitored. After the pre-dose values for these parameters were established, respective groups of rats received a 7 day daily treatment of vehicle, nepicastat or hydralazine.
# Both nepicastat and hydralazine were prepared in water with traces of Tween 80. All doses were given orally to the rat in 10 ml/kg and were expressed as free base equivalents.
# A computerized data collection system was used to continuously collect data on SBP, DBP, MBP, HR, and MA. Data on each rat were collected every 5 min. for 10 sec. These were then averaged hourly and standard errors of the mean (SE) calculated. In this report, only data on MBP, HR and MA were presented. […] Body weights were recorded daily.
compound,measurement,setting,value
"Cl.NCc1c[nH]c(=S)n1[C@H]1CCc2c(F)cc(F)cc2C1 [nepicastat, (S)-5-Aminomethyl-1-(5,7-difluoro-1,2,3,4-tetrahydronaphth-2-yl)-2,3-dihydro-2-thioxo-1H-imidazole hydrochloride]",dose proportionality of concentration in plasma (Day 4) and tissue and plasma (Day 5),"[1]; 10, 30, 60 mg/kg/day, exceptions kidney medulla, plasma day 4",dose-proportional
same,levels in all tissues examined relative to plasma,[1]; Day 5,higher than those in plasma
same,peak decrease in blood pressure (peak hypotensive effect),"[2]; 30 mg/kg/d po, day 2 at hour 13",−10 mmHg
same,peak antihypertensive response on day 1,"[2]; 100 mg/kg po, 22 hr after dosing",−11 mmHg
same,bradycardic response,"[2]; 100 mg/kg, day 2, 3 hours after dosing",−100 b/mm
same,effect on HR,"[2]; nepicastat 30 and 100 mg/kg (day 1), hydralazine 10 mg/kg (throughout)",did not consistently affect HR on day 1
